Experimental data from the NIST ThermoML archive (doi:10.1016/j.jct.2015.06.002).
Numbers after ± are expanded uncertainties.

Experiments:
[1] = Boiling temperature at pressure P; conditions: Liquid, Gas chromatography
[2] = 298.15 K; Liquid; Gas chromatography

Boiling temperature at pressure P ([1]; 0.267 kPa): 116 ± 20 °C
Boiling temperature at pressure P ([1]; 101.33 kPa): 276.0 ± 20 °C
vapor or sublimation pressure [2]: 8.3e-05 ± 2.5e-05 kPa
SMILES: C/C=C/C=C/CCCCCCCO [(E,E)-8,10-dodecadien-1-ol]
